Legend:
Assay type in all cases: in vivo
[1] = system: Beet Armyworm (Spodoptera exigua); assay: Beet armyworm test (BAW)
Method: (§1) The compounds in Tables 1 and 2 above were tested for insecticidal activity using the following testing procedures. LC50 values, based on the results of these tests and calculated according to dosage-mortality curves, are expressed in Table 3.
Beet Armyworm (Spodoptera exigua)
Test compounds were diluted in a 50-50 acetone-water solution. Young leaves of sugar beets (Beta vulgaris) were immersed in the test solutions for 2-3 seconds and placed on a wire screen to dry. The dried leaves were placed in petri dishes containing a moistened filter paper and infested with five second-instar beet armyworm larvae. The dishes were placed in a high humidity chamber. Mortality of the larvae was recorded five days later. Test concentrations ranged from 0.1% downward. The LC-50 values are expressed below in Table 3 under the heading "BAW" in terms of percent of the test compound in solution.

[2] = system: Cabbage Looper [Trichoplusia ni (Hubner)]; assay: Cabbage looper test (CL); conditions: second-instar larvae, 3-5 days, percent in solution
[3] = system: Tobacco Budworm [Heliothis virescens (Fabricius)] eggs; assay: Tobacco budworm egg test (TBW-E); conditions: percent in solution
[4] = system: Housefly [Musca domestica]; assay: Housefly insecticidal test (HF); conditions: per 25 female houseflies, 48 hours
[5] = system: Maize weevil [Sitophilus Zeamais (Motschulsky)]; assay: Maize weevil test (MW); conditions: adult weevils, treated corn seeds, 48 hours, percent in solution
Method in brief: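 Adult weevils (10) were placed with four corn seeds that had been dipped 2-3 s in compound dissolved in 50:50 acetone:water, then dried, and held at about 25° C. Mortality was scored at 48 h. LC50 was taken from dosage-mortality curves and expressed as percent compound in solution, from a 0.01% top concentration.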

[6] = system: Tobacco Budworm [Heliothis virescens (Fabricius)]; assay: Tobacco budworm contact test (TBW-C); conditions: second-instar larvae, 5 days, percent in solution
Method: as §1
Tobacco Budworm [Heliothis virescens (Fabricius)]
(a) Contact: Test compounds were diluted in a 50-50 acetonewater solution. Cotton (Gossypium sp.) cotyledons were immersed in the test solutions for 2-3 seconds and placed on a wire screen to dry. The dried leaves were placed in petri dishes containing a moistened piece of filter paper and infested with 5 second-instar tobacco budworm larvae. The dishes were placed in a high humidity chamber for 5 days, and percent mortality of the larvae recorded. Test concentrations ranged from 0.1% downward. The LC-50 values are expressed below in Table 3 under the heading "TBW-C" in terms of percent of the test compound in the solution.

[7] = system: Aster Leafhopper [Macrosteles fascifrens (Stal)]; assay: Aster leafhopper test (LH); conditions: adults/nymphs, 48 hours, percent in solution
[8] = second-instar larvae, five days, percent in solution

Row | SMILES | LC50 BAW [1, 8] [%] | LC50 CL [2] [%] | LC50 TBW E [3] [%] | LC50 HF [4] [µg] | LC50 MW [5] [%] | LC50 TBW C [6] [%] | LC50 LH [7] [%] | LC50 BAW ([1]; 120 h) [%]
1 | CC(C)C(=Nc1cccc(I)c1)OCc1ccc(F)c(Oc2ccc(F)cc2)c1 [Compound 279] | 0.0025 | 0.00008 | 0.016 | 4 | > 0.01 | 0.007 | 0.0003 | –
2 | CC(C)C(=Nc1ccc(F)c(F)c1F)OCc1cccc(Oc2ccc(F)cc2)c1 [Compound 348] | > 0.1 | 0.0002 | > 0.1 | 8 | > 0.01 | 0.00075 | 0.05 | –
3 | Clc1ccc(N=C(OCc2cccc(Oc3ccccc3)c2)C2CC2)cc1 [Compound 32] | – | 0.003 | 0.1 | 37 | > 0.01 | 0.006 | > 0.05 | 0.03
4 | FC(F)(F)c1ccc(N=C(OCc2cccc(Oc3ccccc3)c2)C(Cl)Cl)cc1 [Compound 61] | 0.002 | 0.001 | 0.03 | 29 | > 0.01 | 0.03 | > 0.05 | –
5 | FC(F)(F)c1ccc(N=C(OCc2cccc(Oc3ccccc3)c2)C2CC2)c(Cl)c1 [Compound 65] | – | < 0.01 | > 0.1 | > 100 | – | 0.1 | > 0.05 | > 0.1
6 | CC(C)C(=Nc1ccc(OC(F)(F)F)cc1)OCc1ccc(F)c(Oc2ccc(F)c(F)c2)c1 [Compound 347] | 0.00075 | 0.000075 | > 0.1 | 30 | > 0.01 | 0.0001 | 0.0002 | –
7 | CC(C)C(=Nc1cc(F)cc(C(F)(F)F)c1)OCc1cccc(Oc2ccccc2)c1 [Compound 77] | – | 0.0005 | 0.03 | 10 | > 0.01 | 0.0004 | 0.0002 | 0.0004
8 | FC(F)(F)Oc1ccc(N=C(OCc2cccc(Oc3ccccc3)c2)C(Cl)Cl)cc1 [Compound 64] | 0.0025 | 0.0025 | 0.03 | 11 | > 0.01 | 0.1 | > 0.05 | –
9 | CC(C)C(=Nc1ccc(F)c(Cl)c1)OCc1ccc(F)c(Oc2ccc(F)c(F)c2)c1 [Compound 346] | > 0.1 | > 0.1 | > 0.1 | 7.2 | – | 0.0002 | 0.05 | –
10 | CC(C)C(=Nc1ccc(C(C)C)cc1)OCc1cccc(Oc2ccccc2)c1 [Compound 144] | > 0.01 | 0.002 | 0.05 | 100 | > 0.01 | 0.006 | 0.0006 | –
11 | CC(C)C(=Nc1cccc(C(F)(F)F)c1)OCc1ccc(F)c(Oc2ccccc2)c1 [Compound 80] | 0.0018 | 0.0003 | 0.005 | 4.5 | – | 0.00075 | 0.0001 | –
12 | CC(Cl)(Cl)C(=Nc1ccc(Cl)cc1)OCc1cccc(Oc2ccccc2)c1 [Compound 3] | 0.015 | 0.012 | > 0.1 | 50 | > 0.01 | 0.009 | > 0.05 | –
13 | Clc1cccc(N=C(OCc2cccc(Oc3ccccc3)c2)C(Cl)Cl)c1 [Compound 1] | 0.009 | 0.005 | 0.05 | 4.8 | > 0.01 | 0.06 | > 0.05 | –
14 | CC(C)C(=Nc1ccc(Cl)c(Cl)c1)OCc1cccc(Oc2ccccc2)c1 [Compound 9] | 0.0005 | 0.001 | 0.02 | 14 | > 0.01 | 0.0008 | 0.0003 | –
15 | CC(C)C(=Nc1ccc(F)c(F)c1)OCc1cccc(Oc2ccccc2)c1 [Compound 54] | 0.004 | 0.0003 | 0.017 | 3.5 | – | 0.001 | 0.00015 | –
16 | CC(C)C(=Nc1ccc2c(c1)OCO2)OCc1cccc(Oc2ccc(F)cc2)c1 [Compound 176] | 0.0035 | 0.0005 | 0.05 | 1.8 | 0.009 | 0.002 | > 0.05 | –
17 | FC(F)(F)Oc1ccc(N=C(OCc2cccc(Oc3ccccc3)c2)C2CC2)cc1 [Compound 63] | – | 0.005 | 0.05 | 30 | > 0.01 | 0.001 | 0.0001 | 0.005
18 | CC(C)C(=Nc1cccc(F)c1)OCc1cccc(Oc2ccccc2)c1 [Compound 47] | 0.002 | 0.002 | 0.06 | 10 | – | 0.002 | 0.0003 | –
19 | ClCC(=Nc1ccc(Cl)cc1)OCc1cccc(Oc2ccccc2)c1 [Compound 31] | 0.08 | 0.05 | > 0.1 | > 100 | > 0.01 | 0.01 | > 0.05 | –
20 | CC1(C(=Nc2ccc(Cl)cc2)OCc2cccc(Oc3ccccc3)c2)CC1 [Compound 5] | 0.025 | 0.005 | 0.05 | 21 | > 0.01 | 0.008 | > 0.05 | –
21 | CC(C)C(=Nc1ccc(F)cc1F)OCc1cccc(Oc2ccccc2)c1 [Compound 52] | 0.01 | 0.0025 | > 0.05 | 8 | – | 0.004 | 0.001 | –
22 | CC(=Nc1ccccc1)OCc1cccc(Oc2ccccc2)c1 [Compound 42] | > 0.1 | > 0.1 | > 0.1 | 45 | > 0.01 | > 0.1 | > 0.05 | –
23 | Fc1ccc(N=C(OCc2cccc(Oc3ccccc3)c2)C2CC2)cc1 [Compound 45] | – | 0.03 | 0.08 | 30 | – | 0.01 | > 0.05 | 0.1
24 | CC(C)C(=Nc1ccc2c(c1)OC(F)(F)O2)OCc1ccc(F)c(Oc2ccc(F)cc2)c1 [Compound 284] | 0.0025 | 0.00005 | – | 39 | 0.0075 | 0.0002 | 0.0003 | –
